Data on six compounds can be found in US6528516B1, “Methods for reducing intraocular pressure using A3 adenosine receptor antagonists” (Trustees of the University of Pennsylvania, The Center for …, priority 1998, dated 2003).

Molecules are shown by their SMILES. “Also recorded” adds a separate entry of the source. Like-named read-outs stand apart in the source and are kept apart here.

Data set [1] deals with T1, human A3 receptor (Homo sapiens, UniProt P0DMS8).
T1 sequence (P0DMS8 1-318): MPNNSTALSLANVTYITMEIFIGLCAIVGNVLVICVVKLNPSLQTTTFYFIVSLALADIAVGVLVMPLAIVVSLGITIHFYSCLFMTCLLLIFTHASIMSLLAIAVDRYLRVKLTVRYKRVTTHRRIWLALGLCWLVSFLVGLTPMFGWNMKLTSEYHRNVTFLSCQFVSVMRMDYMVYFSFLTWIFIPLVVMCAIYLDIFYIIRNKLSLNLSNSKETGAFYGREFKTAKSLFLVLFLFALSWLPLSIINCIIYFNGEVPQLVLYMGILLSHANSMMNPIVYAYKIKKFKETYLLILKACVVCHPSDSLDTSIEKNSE
The experiment in a line: Radioligand binding, [125I]AB-MECA, HEK-293 cell membranes. More on the design: host or cells: HEK-293. The note with it: read-out: Ki(hA3). The protocol: Natl. Acad. Sci. […] Natl. Acad. Sci. U.S.A. 89:7432-7436, 1992) was performed as described at 4° C. (Olah et al., Mol. Pharmacol. 45:978-982, 1994). The assay medium consisted of a buffer containing 10 mM Mg^2+, 50 mM Tris, 3 units/mL adenosine deaminase, and 1 mM EDTA, at pH 8.0 (4° C.). […] Incubations were terminated by rapid filtration over Whatman GF/B filters, using a Brandell cell harvester (Brandell, Gaithersburg, MD). The tubes were rinsed three times with 3 mL buffer each. At least five different concentrations of competitor, spanning 3 orders of magnitude adjusted appropriately for the IC50 of each compound, were used. IC50 values, calculated with the nonlinear regression method implemented in the InPlot program (Graph-PAD, San Diego, Calif.), were converted to apparent Ki values using the Cheng-Prusoff equation (Cheng et al., Biochem.

In a further data set the target is T2, A1 receptors (Rattus norvegicus, UniProt P25099).
T2 construct: A1 receptors from rat cerebral cortex membranes; from tissue; host or cells: rat cerebral cortex membranes
T2 sequence (P25099 1-326): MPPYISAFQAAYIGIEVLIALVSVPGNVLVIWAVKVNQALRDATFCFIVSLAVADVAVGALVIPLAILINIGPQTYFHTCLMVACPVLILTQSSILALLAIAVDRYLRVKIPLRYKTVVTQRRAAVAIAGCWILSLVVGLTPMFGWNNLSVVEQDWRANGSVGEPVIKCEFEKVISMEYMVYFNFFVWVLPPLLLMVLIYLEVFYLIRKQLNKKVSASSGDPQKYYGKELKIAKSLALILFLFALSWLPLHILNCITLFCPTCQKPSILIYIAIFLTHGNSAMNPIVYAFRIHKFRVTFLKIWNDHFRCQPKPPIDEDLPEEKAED
The experiment in a line: Radioligand binding, [3H]R-PIA, rat cerebral cortex membranes. How it is done: Radioligand binding studies. Binding of [^3H]R-N^6-phenylisopropyladenosine ([^3H]R-PIA) to A1 receptors from rat cerebral cortex membranes and of [^3H]-2-[4-[(2-carboxyethyl)phenyl]ethylamino]-5′-N-ethylcarbamoyladenosine ([^3H]CGS 21680) to A2A receptors from rat striatal membranes was performed as described previously (Schwabe et al., Naunyn Schmiedeberg Arch. Pharmacol. 313:179-187, 1980; Jarvis et al., J. Pharmacol. Exp. Ther. 251:888-893, 1989) Adenosine deaminase (3 units/mL) was present during the preparation of the brain membranes, in a pre-incubation of 30 min at 30° C., and during the incubation with the radioligands. Nonspecific binding was determined in the presence of 10 μM (A1 receptors) or 20 μM (A2A receptors)2-chloroadenosine.
All non-radioactive compounds were initially dissolved in DMSO, and diluted with buffer to the final concentration, where the amount of DMSO never exceeded 1%. Incubations were terminated by rapid filtration over Whatman GF/B filters, using a Brandell cell harvester (Brandell, Gaithersburg, MD). The tubes were rinsed three times with 3 mL buffer each.
At least five different concentrations of competitor, spanning 3 orders of magnitude adjusted appropriately for the IC50 of each compound, were used.

In data set [2] the target is T1, human A3 receptor. Put plainly: Adenylate cyclase assay, CHO cell membranes, forskolin stimulated. In kind it is biochemical.
Another data set is described as follows: Water solubility. In kind it is physicochemical. The note with it: room temperature. The protocol:
100 μL of de-ionized water was saturated with 5 mg 11 with heating. After cooling to room temperature and the disappearance of turbidity, 50 μL of the clear supernatant was withdrawn and lyophilized to give 1.1 mg of 11.

For the next data set, the target named is human A2 receptors. To be noted: read-out: Ki for binding to human A2 receptors; cited from earlier work.
The subject of data set [3] is HCE (human ciliary epithelial) cell line, NPE cells. Put plainly: Cell volume (shrinkage) of NPE cells in isosmotic solution, Coulter Counter, 5 μM gramicidin. In kind it is cell-based. The note with it: for effect of A3 antagonist on adenosine-stimulated isotonic shrinkage: 300 nM MRS-1097, 100 nM MRS-1191, 100 nM MRS-1523, 10 μM adenosine; for effect of A3 antagonist on shrinkage triggered by 3 μM CGS-21680: 100 nM MRS-1191 preincubation; for effect of A3 antagonist on IB-MECA-stimulated isotonic shrinkage: 2 min preincubation, MRS-1097 300 nM, MRS-1191 100 nM, 100 nM IB-MECA. The protocol:
A 0.5-ml aliquot of the HCE cell suspension in DMEM was added to 20 ml of each test solution, which contained (in mM): 110.0 NaCl, 15.0HEPES [4-(2-hydroxyethyl)-1-piperazineethanesulfonic acid], 2.5 CaCl2, 1.2 MgCl2, 4.7 KCl, 1.2 KH2PO4, 30.0 NaHCO3, and 10.0 glucose, at a pH of 7.4 and osmolality of 298-305 mOsm. Parallel aliquots of cells were studied on the same day. One aliquot usually served as a control, and the others were exposed to different experimental conditions at the time of suspension. The same amount of solvent vehicle (dimethylformamide, DMSO or ethanol) was always added to the control and experimental aliquots. The sequence of studying the suspensions was varied to preclude systematic time-dependent artifacts (Civan et al., Exp. Eye Res. 54:181-191, 1992).
Cell volumes of isosmotic suspensions were measured with a Coulter Counter (model ZBI-Channelyzer II), using a 100-μm aperture (Civan et al., supra., 1994). As previously described (Wax et al., supra., 1993), the cell volume (vC) of the suspension was taken as the peak of the distribution function. Cell shrinkage was fit as a function of time (t) to a monoexponential function:
vC=v∞+(v0−v∞)−[e^−(t−t^0^)/τ] {1}
where v∞ is the steady-state cell volume, v0 is the cell volume at the first point (t0) of the time course to be fit, and τ is the time constant of the shrinkage. For purposes of data reduction, the data were normalized to the first time point, taken to be 100% isotonic volume. Fits were obtained by nonlinear least-squares regression analysis, permitting both v∞and τ to be variables.
In order to differentiate among these receptors, the experiments were repeated in the present study using a series of agonists and antagonists selective for these receptors. As we wished to identify the effects of these receptors specifically on Cl^− channels, 5 μM gramicidin D was included in all solutions to eliminate any potential contribution from K^+ channels. This ionophore readily partitions into plasma membranes to form a cation-selective pore, and is widely used for studying volume regulation (Hoffmann et al., in Interaction of Cell Volume and Cell Function, Lang et al., eds., Springer, Heidelberg, Germany, pp. 188-248, (ACEP Series 14), 1993)). Under these conditions, release of cell Cl^− becomes the rate-limiting factor in both hypo-(Civan et al., Exp. Eye Res. 54:181-191, 1992) and isoosmotic cell shrinkage (Carre et al., supra., 1997).

For data set [4], the target named is T1, human A3 receptor. To be noted: read-out: Ki for binding to human A3 receptors; cited from earlier work.
For data set [5], the system named is HCE (human ciliary epithelial) cell line, NPE cells. To be noted: read-out: EC50 for isoosmotic shrinkage of cultured human NPE cells; cited from earlier work.
For data set [6], the target named is T3, recombinant human A2B receptors (Homo sapiens, UniProt P29275).
T3 sequence (P29275 1-332): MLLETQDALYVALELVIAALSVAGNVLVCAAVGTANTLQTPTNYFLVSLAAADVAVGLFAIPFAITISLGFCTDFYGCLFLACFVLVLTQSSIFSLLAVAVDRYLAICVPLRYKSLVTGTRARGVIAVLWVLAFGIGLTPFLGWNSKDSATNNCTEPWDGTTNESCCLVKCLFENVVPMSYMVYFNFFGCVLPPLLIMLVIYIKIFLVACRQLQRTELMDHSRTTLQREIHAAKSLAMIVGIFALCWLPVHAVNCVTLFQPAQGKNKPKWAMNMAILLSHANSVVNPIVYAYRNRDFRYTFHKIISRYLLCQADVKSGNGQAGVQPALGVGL
The experiment in a line: Radioligand binding to recombinant human A2B receptors. The note with it: at 10 μM.

A word on the Ki: it is a measure of affinity in units of concentration, obtained from inhibition or displacement. Turning to `CCOC(=O)C1=C(C2CCCC2)N(C)C(CC)=C(C(=O)SCC)C1CC` (stereo not drawn) [Compound 25, 1-Methyl-2,4-diethyl-3-(ethylsulfanylcarbonyl)-5-ethyloxycarbonyl-6-cyclopentyl-1,4-dihydropyridine], the Ki at human A3 receptor [1] turned out to be 6400 ± 780 nM. For the same compound, at A1 receptors (at 100 μM), the “displacement at rat A1 receptors” value was determined as 34 ±1%.
As to `CCOC(=O)c1c(CC)c(C(=O)SCC)c(CC)[n+](C)c1C1CCCC1` [Compound 23, 1-Methyl-2,4-diethyl-3-(ethylsulfanylcarbonyl)-5-ethyloxycarbonyl-6-cyclopentylpyridinium Iodide], the Ki on human A3 receptor [1] was determined as 695 nM; on A1 receptors it was 11500 nM.
In general, solubility refers to how much of the substance goes into solution per volume. On to `CCOC(=O)c1c(CC)c(C(=O)SCC)c(CC)[n+](C)c1-c1ccccc1.[I-]` [Compound 11, 1-Methyl-2,4-Diethyl-3-(ethylsulfanylcarbonyl)-5-ethyloxycarbonyl-6-phenylpyridinium Iodide], for which, at human A3 receptor [2], the “KB relative to the Ki value in binding to human A3 receptors” value is recorded as “approximately 1.8 times”. Moreover, at human A3 receptor [2] (10 μM of 11), the “shift of the IB-MECA concentration response curve to the right” value was 26 fold. In addition, on human A3 receptor [2] (read-out: KB value (Schild analysis)), the Kb was found to be 399 nM. The Ki at human A3 receptor [1] was 219 nM. The same compound came in with a solubility in “Water solubility” (de-ionized water, water, thermodynamic from solid) of 42.8 mM. The same compound had a water solubility in “Water solubility” (listed as MRS 1649) of 43 mM.
Turning to `CCCOC(=O)c1c(-c2ccccc2)nc(CC)c(C(=O)SCC)c1CCC` [MRS-1523], the Ki on human A2 receptors is 2050 nM; on human A3 receptor [4], 19 nM. Also, the “effect of A3 antagonist on adenosine-stimulated isotonic shrinkage” value is given as “prevented the characteristic shrinkage” in data set [3] and “eliminated the actions of adenosine; also recorded: blocked the shrinkage” in data set [3] (listed as MRS 1523).
The term EC50 denotes the concentration that produces a half-maximal response. Regarding `Nc1ncnc2c1ncn2[C@@H]1O[C@H](CO)[C@@H](O)[C@H]1O` [adenosine], the EC50 in data set [5] is 3000 to 10000 nM.
For `CCOC(=O)C1=C(C)NC(c2ccccc2)=C(C(=O)OCc2ccccc2)C1C#Cc1ccccc1` (racemic) [MRS-1191, 3-ethyl 5-benzyl-2-methyl-6-phenyl-4-phenylethynyl-1,4-(±)-dihydropyridine-3,5-dicarboxylate], at human A2 receptors, the Ki is over 100000 nM. Further, in [6], the “displacement of radioligand binding to recombinant human A2B receptors” value is “did not displace radioligand binding”. For the same compound, in data set [3], the “effect of A3 antagonist on shrinkage triggered by 3 μM CGS-21680” value is on record as “abolished this effect; also recorded: blocked”, the “effect of A3 antagonist on adenosine-stimulated isotonic shrinkage” value is “prevented the characteristic shrinkage” and the “effect of A3 antagonist on IB-MECA-stimulated isotonic shrinkage” value is “prevented characteristic shrinkage”. In data set [3] (listed as MRS 1191), the “effect of A3 antagonist on shrinkage triggered by 3 μM CGS-21680” value is recorded as “prevented this shrinkage”, the “effect of A3 antagonist on adenosine-stimulated isotonic shrinkage” value is recorded as “blocked the shrinkage” and the “effect of A3 antagonist on IB-MECA-stimulated isotonic shrinkage” value is reported as “prevent the shrinkage”. Besides, in data set [3] (100 nM antagonist alone), the “effect on cell volume in the absence of IB-MECA” value is “did not affect cell volume”.
